The values below come from US11129810B2, “Dosage regimen for the treatment of acute exacerbations of chronic obstructive pulmonary disease” (MEREO BIOPHARMA 1 LIMITED, priority 2016, dated 2021).

Data set [1] in a line: Highest safe dose based on toxicology margins. How it is done:
However, in order to initiate suppression of the inflammatory response the Day 1 dose in both regimes is higher than the doses on Days 3 and 5. The ‘high’ dosing regimen (regimen 1) is initiated at 75 mg which is the highest dose which can be safely administered based on toxicology margins whereas the ‘low’ dose regimen is initiated at a 40 mg dose which approximates to the mid-point in the TNF-α response curve.

For data set [2] the following is noted: single oral dose; WO 2013/139809; cited from earlier work.
Data set [3] can be described thus: Plasma protein binding (free fraction) in human plasma samples. It is filed as in vitro ADME.
The nature of data set [4]: Human plasma PK of the Day 1, 3 and 5 dosing regimen. It is filed as in vivo. From the text: This study investigated the efficacy, safety and tolerability of two different dosing regimens of 3-[5-amino-4-(3-cyanobenzoyl)-pyrazol-1-yl]-N-cyclopropyl-4-methylbenzamide added to SoC (systemic corticosteroids and/or antibiotics) versus placebo added to SoC in subjects with severe acute exacerbations of COPD. The proposed doses take into account trough levels based on PK modelling to ensure that the drug rapidly achieves and remains at effective concentrations between doses.
(§1) A number of PK studies have been performed looking at both dosing intervals (Days 1, 3 and 5 (FIGS. 1-4, top panels) versus Days 1, 4 and 7 (FIGS. 1-4 bottom panels)), as well as dose levels (approximately 75/40/40 mg (FIG. 1); approximately 75/20/20 (FIG. 2); approximately 40/40/40 mg (FIG. 3); approximately 40/20/20 mg (FIG. 4), etc.). Based on exposures of the various regimens, there is limited benefit in dosing beyond Day 5 for a typical exacerbation.
Dosing at Day 1, 3 and 5, maintains drug levels above 220 ng/mL out to approximately 140 to 150 hours. This achieves a plasma concentration of 5.7 μM.
The concentration based on free fraction is at or above 740 nM for the duration of the dosing interval. Cmax is approximately 2 μM based on the first dose. […] Assuming a PK variability of 50%, drug levels are 3 to 5 times above the K and so would produce high levels of inhibition, potentially in the range of 90 to 99%.

Another data set concerns TNF-α. The data set is described as follows: TNF-α levels after single oral doses versus placebo (ex vivo LPS-challenged blood samples). It is filed as in vivo, human. How it is done: as §1
Part 1 of study CBCT197A2101 was a randomized, double-blind, placebo-controlled, ascending single-dose study to evaluate safety, tolerability, PK and PD of oral 3-[5-amino-4-(3-cyanobenzoyl)-pyrazol-1-yl]-N-cyclopropyl-4-methylbenzamide in healthy subjects. Part 2 was a 14-day, randomized, double-blind, placebo-controlled, ascending multiple dose study evaluating the PK and PD of oral 3-[5-amino-4-(3-cyanobenzoyl)-pyrazol-1-yl]-N-cyclopropyl-4-methylbenzamide. PD effect of 3-[5-amino-4-(3-cyanobenzoyl)-pyrazol-1-yl]-N-cyclopropyl-4-methylbenzamide in Parts 1 and 2 was assessed by measuring TNFa levels in ex vivo LPS-challenged blood samples. […] Part 3 of the study determined the effect of a single oral administration of 3-[5-amino-4-(3-cyanobenzoyl)-pyrazol-1-yl]-N-cyclopropyl-4-methylbenzamide on serum TNFa levels after in vivo intravenous LPS challenge.

For orientation: fraction unbound means free concentration divided by total concentration. Usually Cmax stands for the maximum level reached in the sampled fluid or tissue. With `Cc1ccc(C(=O)NC2CC2)cc1-n1ncc(C(=O)c2cccc(C#N)c2)c1N` [3-[5-amino-4-(3-cyanobenzoyl)-pyrazol-1-yl]-N-cyclopropyl-4-methylbenzamide], in data set [1], the “highest dose which can be safely administered based on toxicology margins” value is listed as 75 mg. Besides, the “effect on recovery of AECOPD to the stable disease state” value in data set [2] was “accelerates the recovery to the stable disease state”. Moreover, the fraction unbound in data set [3] is 0.13 to 0.25. The same compound yielded a plasma concentration in data set [4] (dosing at Day 1, 3 and 5) of 5700 nM. Moreover, the drug levels maintained entry in data set [4] (dosing at Day 1, 3 and 5, out to approximately 140 to 150 hours) is “above 220 ng/mL”. In data set [4] (for the duration of the dosing interval), the “concentration based on free fraction” value is listed as at least 740 nM. The compound also yielded a Cmax in data set [4] (human, plasma, oral, based on the first dose) of around 2000 nM. In addition, the enzyme inhibition in data set [4] (occurs for 6 days, from drug levels versus Ki and IC50) is above 99%. In the data set with TNF-α (doses ranging from 0.1 to 75 mg), the “reduction in TNF-α levels” value was “dose-dependent reduction”. Also, the “dose approximating the mid-point in the TNF-α response curve” value in the data set with TNF-α (in vivo) is around 40 mg.
